# Test results from US11028051B2, “Tetrahydroquinoline-based bromodomain inhibitors” (St. Jude Children's Research Hospital, priority 2016, dated 2021).
# Where two headings read alike, the source gives them in different places.
# How the values were obtained:
# Test in all cases: competitive TR-FRET assay, BET-BD with acetylated peptide ligand
# Format in all cases: binding
# [1] = biological target: BRD2-BD1 (Homo sapiens (Human), UniProt P25440); conditions: BRD2-BD1; Table 11 additional modifications; read-out: 2.1 EC50
# BRD2-BD1, sequence (P25440 74-180): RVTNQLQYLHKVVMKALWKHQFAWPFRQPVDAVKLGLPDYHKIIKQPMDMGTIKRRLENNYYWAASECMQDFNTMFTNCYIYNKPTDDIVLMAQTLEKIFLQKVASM
# Procedure: (§1) Inhibitor potency was determined using a competitive TR-FRET assay as detailed herein, measuring interaction of the respective BET-BD with an acetylated peptide ligand (Table 2).
# [2] = biological target: BRD2-BD2 (Homo sapiens (Human), UniProt P25440); conditions: for EC50: Table 11 additional modifications; for 2.1/2.2: ratio of BRD2-BD1 EC50 to BRD2-BD2 EC50 (selectivity)
# BRD2-BD2, sequence (P25440 344-453): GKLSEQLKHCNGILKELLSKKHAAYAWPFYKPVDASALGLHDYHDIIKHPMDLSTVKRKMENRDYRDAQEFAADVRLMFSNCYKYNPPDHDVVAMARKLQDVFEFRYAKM
# Procedure: as §1
# [3] = biological target: BRD3-BD1 (Homo sapiens (Human), UniProt Q15059); conditions: BRD3-BD1; Table 11 additional modifications; read-out: 3.1 EC50
# BRD3-BD1, sequence (Q15059 34-140): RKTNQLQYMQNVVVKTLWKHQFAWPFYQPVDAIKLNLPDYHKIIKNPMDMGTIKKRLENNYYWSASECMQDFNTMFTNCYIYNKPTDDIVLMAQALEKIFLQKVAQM
# Procedure: as §1
# [4] = biological target: BRDT (Homo sapiens, UniProt Q58F21); conditions: BRDT; Table 11 additional modifications; read-out: BRDT EC50
# Procedure: as §1
Compound,EC50 [1] [nM],"EC50 ([2]; BRD2-BD2, read-out: 2.2 EC50) [nM]",2.1/2.2 [2],EC50 [3] [µM],EC50 [4] [µM],"EC50 ([2]; 2.2 EC50, BRD2-BD2) [nM]"
CC(=O)Nc1ccc(-c2ccc3c(c2)[C@H](Nc2ccc(Cl)cc2)C[C@H](C)N3C(C)=O)cc1 [compound 48],1900,360,5.3,1.9,5.3,–
CC(=O)N1c2ccc(-c3cccc(-n4cccn4)c3)cc2[C@H](Nc2ccccc2OC(F)(F)F)C[C@@H]1C [compound 140],21000,1400,22.9,31,> 82,–
CC(=O)N1c2ccc(-c3cccc(NCCC(F)(F)F)c3)cc2[C@H](Nc2ccccc2OC(F)(F)F)C[C@@H]1C [compound 153],90000,1700,8.2,39,> 90,–
CC(=O)N1c2ccc(-c3cc[nH]n3)cc2[C@H](Nc2ccccc2Cl)C[C@@H]1C [compound 203],–,–,51,–,–,–
CC(=O)N1c2ccc(-c3ccn(-c4ccc(C#N)cc4)n3)cc2[C@H](Nc2ccc(C#N)cc2)C[C@@H]1C [compound 207],–,–,44,–,–,–
CC(=O)N1c2ccc(-c3cccc(NCC4CCOC4)c3)cc2[C@H](Nc2ccc(C#N)cc2)C[C@@H]1C (some centres unmarked) [compound 183],–,–,27,–,–,–
CC(=O)Nc1cccc(-c2ccc3c(c2)[C@H](Nc2ccc(C#N)c(C(F)(F)F)c2)C[C@H](C)N3C(C)=O)c1 [compound 192],4800,–,6.3,–,–,52
CC(=O)N1c2ccc(-c3cccc(N(CCC(C)C)CCC(C)C)c3)cc2[C@H](Nc2ccccc2OC(F)(F)F)C[C@@H]1C [compound 148],90000,34000,16,> 90,> 90,–
CC(=O)N1c2ccc(-c3ccn(C)n3)cc2[C@H](Nc2ccc(C#N)cc2)C[C@@H]1C [compound 182],–,–,23,–,–,–
COC(=O)c1ccc(N[C@@H]2C[C@H](C)N(C(C)=O)c3ccc(-c4ccnn4C)cc32)cc1 [compound 144],3800,290,7.0,3.1,15,–
COC(=O)c1ccc(N[C@@H]2C[C@H](C)N(C(C)=O)c3ccc(-c4cccc(NCC5CC5)c4)cc32)cc1 [compound 141],2500,500,0.015,1.7,5.2,–
CCCN(CCC)c1cccc(-c2ccc3c(c2)[C@H](Nc2ccccc2OC(F)(F)F)C[C@H](C)N3C(C)=O)c1 [compound 155],17000,5700,2.6,79,> 84,–
CC(=O)N1c2ccc(-c3cccc(N(CC4CC4)CC4CC4)c3)cc2[C@H](Nc2ccccc2OC(F)(F)F)C[C@@H]1C [compound 152],79000,8400,–,78,> 79,–
CC(=O)Nc1cccc(-c2ccc3c(c2)[C@H](NC2CCN(C)CC2)C[C@H](C)N3C(C)=O)c1 [compound 119],–,–,2.9,–,–,–
COc1cccc(-c2ccc3c(c2)[C@H](Nc2ccc(Cl)cc2)C[C@H](C)N3C(C)=O)c1 [compound 147],7200,1600,7.4,9.4,17,–
C#CCCNC(=O)c1ccc(N[C@@H]2C[C@H](C)N(C(C)=O)c3ccc(-c4cccc(NC(C)=O)c4)cc32)cc1 [compound 139],790,230,3.4,0.69,1.9,–
CC(=O)N1c2ccc(-c3cc[nH]n3)cc2[C@H](Nc2ccc(F)c(F)c2)C[C@@H]1C [compound 202],–,–,36,–,–,–
COc1cccc(NC2CCN(C(C)=O)c3ccc(-c4cccc(NC(C)=O)c4)cc32)c1 (centres unmarked) [compound 178],–,–,22,–,–,–
COC(=O)c1ccc(CN(Cc2ccc(C(=O)OC)cc2)[C@@H]2C[C@H](C)N(C(C)=O)c3ccc(-c4cccc(NC(C)=O)c4)cc32)cc1 [compound 158],–,–,11,–,–,–
CC(=O)Nc1cccc(-c2ccc3c(c2)[C@H](Nc2cc(F)c(C#N)c(F)c2)C[C@H](C)N3C(C)=O)c1 [compound 190],2200,120,37,–,–,–
CC(=O)N(c1ccc(NCC2CC2)cc1)[C@@H]1C[C@H](C)N(C(C)=O)c2ccc(-c3cccc(NC(=O)OC(C)(C)C)c3)cc21 [compound 122],–,–,70,–,–,–
COC(=O)c1ccc(N[C@@H]2C[C@H](C)N(C(C)=O)c3ccc(-c4c[nH]cn4)cc32)cc1 [compound 156],–,–,9.4,–,–,–
CC(=O)N(c1ccc(NCCC(C)C)cc1)[C@@H]1C[C@H](C)N(C(C)=O)c2ccc(-c3cccc(NC(=O)OC(C)(C)C)c3)cc21 [compound 124],–,–,4.0,–,–,–
CC(=O)N1c2ccc(-c3cccc(NC(=O)C(C)C)c3)cc2[C@H](Nc2ccc(C#N)cc2)C[C@@H]1C [compound 184],670,110,14,–,–,–
CC(=O)N1c2ccc(-c3cccc(NCCC(F)(F)F)c3)cc2[C@H](Nc2ccc(C#N)cc2)C[C@@H]1C [compound 180],–,–,13,–,–,–
CC(=O)N1c2ccc(-c3cccc(NC(=O)C(C)(C)C)c3)cc2[C@H](Nc2ccc(Cl)cc2)C[C@@H]1C [compound 206],–,–,57,–,–,–
CC(=O)N1c2ccc(-c3cccc(NC(=O)C(C)(C)C)c3)cc2[C@H](Nc2ccc(C#N)cc2)C[C@@H]1C [compound 185],1800,29,–,–,–,–
COC(=O)c1ccc(N[C@@H]2C[C@H](C)N(C(C)=O)c3ccc(-c4cn(C)cn4)cc32)cc1 [compound 157],–,–,52,–,–,–

# Continued, in another order:
EC50 [1] [nM],"EC50 ([2]; BRD2-BD2, read-out: 2.2 EC50) [nM]",2.1/2.2 [2],EC50 [3] [µM],EC50 [4] [µM],Compound,"EC50 ([2]; 2.2 EC50, BRD2-BD2) [nM]"
–,–,>1000,–,–,CC(=O)Nc1cccc(-c2ccc3c(c2)[C@H](Nc2ccc(NC(=O)C4CC4)cc2)C[C@H](C)N3C(C)=O)c1 [compound 123],–
1000,–,63,–,–,CC(=O)Nc1cccc(-c2ccc3c(c2)[C@H](Nc2ccc(C#N)c(F)c2)C[C@H](C)N3C(C)=O)c1 [compound 193],–
–,–,64,–,–,CC(=O)N1c2ccc(-c3cccc(NC(=O)C(C)(C)C)c3)cc2[C@H](Nc2ccccc2Cl)C[C@@H]1C [compound 205],–
2100,59,–,–,–,CC(=O)Nc1cccc(-c2ccc3c(c2)[C@H](Nc2ccc(C#N)c(Cl)c2)C[C@H](C)N3C(C)=O)c1 [compound 186],–
–,–,33,–,–,CC(=O)Nc1cccc(-c2ccc3c(c2)[C@H](Nc2ccc(NC(=O)CO)cc2)C[C@H](C)N3C(C)=O)c1 [compound 121],–
2000,–,92,–,–,CC(=O)Nc1cccc(-c2ccc3c(c2)[C@H](Nc2ccccc2C)C[C@H](C)N3C(C)=O)c1 [compound 200],–
870,17,73,–,–,CC(=O)Nc1cccc(-c2ccc3c(c2)[C@H](Nc2ccc(C#N)c(C)c2)C[C@H](C)N3C(C)=O)c1 [compound 195],–
1100,70,16,–,4.6,CC(=O)Nc1cccc(-c2ccc3c(c2)[C@H](Nc2ccc(C(C)=O)cc2)C[C@H](C)N3C(C)=O)c1 [compound 17],–
890,19,26,–,–,CC(=O)Nc1cccc(-c2ccc3c(c2)[C@H](Nc2ccc(C#N)cc2C)C[C@H](C)N3C(C)=O)c1 [compound 199],–
–,–,36,–,–,CC(=O)Nc1cccc(-c2ccc3c(c2)[C@H](Nc2ccc(F)cc2Cl)C[C@H](C)N3C(C)=O)c1 [compound 204],–
1200,47,26,–,–,COc1cc(N[C@@H]2C[C@H](C)N(C(C)=O)c3ccc(-c4cccc(NC(C)=O)c4)cc32)ccc1C#N [compound 191],–
670,17,48,–,–,COc1cc(C#N)ccc1N[C@@H]1C[C@H](C)N(C(C)=O)c2ccc(-c3cccc(NC(C)=O)c3)cc21 [compound 189],–
110,4,–,–,–,CC(=O)Nc1cccc(-c2ccc3c(c2)[C@H](Nc2ccc4c(c2)CCNC4)C[C@H](C)N3C(C)=O)c1 [compound 188],–
8000,170,8.4,–,–,CC(=O)Nc1cccc(-c2ccc3c(c2)[C@H](Nc2cccc(C(F)(F)F)c2)C[C@H](C)N3C(C)=O)c1 [compound 181],–
3500,54,39,–,–,CC(=O)Nc1cccc(-c2ccc3c(c2)[C@H](Nc2ccccc2Cl)C[C@H](C)N3C(C)=O)c1 [compound 197],–
8700,120,–,–,–,CC(=O)Nc1cccc(-c2ccc3c(c2)[C@H](Nc2ccccc2Cl)C[C@H](C)N3C(C)=O)c1 [compound 187],–
–,–,21,–,–,CC(=O)Nc1cccc(-c2ccc3c(c2)[C@H](Nc2ccc(C(=O)COC(C)=O)cc2)C[C@H](C)N3C(C)=O)c1 [compound 162],–
3300,57,19,–,–,CC(=O)Nc1cccc(-c2ccc3c(c2)[C@H](Nc2cccc(Cl)c2)C[C@H](C)N3C(C)=O)c1 [compound 198],–
–,–,6.7,–,–,CC(=O)Nc1cccc(-c2ccc3c(c2)[C@H](Nc2cccc(CN)c2)C[C@H](C)N3C(C)=O)c1 [compound 163],–
2200,60,35,–,–,CC(=O)Nc1cccc(-c2ccc3c(c2)[C@H](Nc2ccccc2C#N)C[C@H](C)N3C(C)=O)c1 [compound 194],–
2170,60,27,–,–,CC(=O)Nc1cccc(-c2ccc3c(c2)[C@H](Nc2ccc(C#N)cc2Cl)C[C@H](C)N3C(C)=O)c1 [compound 196],–
–,–,2.9,–,–,COC(=O)c1ccc(CN[C@@H]2C[C@H](C)N(C(C)=O)c3ccc(-c4cccc(NC(C)=O)c4)cc32)cc1 [compound 159],–
